Data on 23 compounds can be found in patent US7173004B2, “Macrocyclic isoquinoline peptide inhibitors of hepatitis C virus” (Bristol-Myers Squibb Company, priority 2003, dated 2007).

One may read the pIC50 as the negative decadic logarithm of the IC50, by convention in mol/L.

pIC50: −log10 of the molar value.

One assay deals with T1, HCV NS3/4A protease complex, BMS strain (genotype 1a) (UniProt P27958, C1454S/C1711G, species not given/STRAIN_BMS).
T1 construct: b1001: DNA encoding the recombinant HCV NS3/4A protease complex (amino acids 1027 to 1711) ... a three-lysine solubilizing tail was added at the 3′-end of the NS4A coding region; fused on or other part: Three-lysine solubilising tail at the C-terminus of NS4A; A His tag is implied by the pET21b vector and Ni-NTA purification
The assay can be described thus: Recombinant HCV NS3/4A protease complex FRET peptide assay, BMS strain. The note with it: NS3/4A BMS Strain; activity range classes. In kind it is biochemical. In a few lines:
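Recombinant NS3/4A (aa 1027–1711) from H77C, J4L6S or BMS strains, with C1454S and C1711G mutations and three-lysine tail, expressed in E. coli and Ni-NTA/gel-filtration purified to >90%. Inhibition of cleavage of a FRET peptide substrate measured.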
In the case of `COc1ccc2c(O[C@@H]3C[C@H]4C(=O)N[C@]5(C(=O)O)C[C@H]5/C=C\CCCO[C@H](C)[C@H](NC(=O)OC(C)(C)C)C(=O)N4C3)nccc2c1` [Compound 61], the pIC50 was 5.30 to 6.30. Still for that read-out and setting: under `COc1ccc2c(O[C@@H]3C[C@H]4C(=O)N[C@]5(C(=O)O)C[C@H]5/C=C\CCCSC(C)(C)[C@H](NC(=O)OC(C)(C)C)C(=O)N4C3)nccc2c1` [Compound 79, (1S,4R,6S,14R,18R)-7-cis-14-tert-Butoxycarbonylamino-13,13-dimethyl-18-(6-methoxy-isoquinolin-1-yloxy)-2,15-dioxo-12-thia-3,16-diazatricyclo[14.3.0.0^4,6]nonadec-7-ene-4-carboxylic acid] stands 4.30 to 5.30; under `COc1ccc2c(O[C@@H]3C[C@H]4C(=O)N[C@]5(C(=O)O)C[C@H]5/C=C\CCCOC[C@H](NC(=O)OC(C)(C)C)C(=O)N4C3)nccc2c1` [Compound 84, (1S,4R,6S,14S,18R)-7-cis-14-tert-Butoxycarbonylamino-18-(6-methoxyisoquinolin-1-yloxy)-2,15-dioxo-12-oxa-3,16-diazatricyclo[14.3.0.0^4,6]-nonadec-7-ene-4-carboxylic acid], 6.30 to 7.30; under `COc1ccc2c(OC3CC4C(=O)NC5(C(=O)O)CC5C=CCCCCC(NC(=O)OC(C)(C)C)C(=O)N4C3)nccc2c1` (centres unmarked) [Compound 143], 6.30 to 7.30. On the same count and under the same terms, the value for `CC(C)(C)OC(=O)N[C@H]1CN(S(=O)(=O)c2ccccc2[N+](=O)[O-])CCC/C=C\[C@@H]2C[C@@]2(C(=O)O)NC(=O)[C@@H]2C[C@@H](Oc3nccc4ccccc34)CN2C1=O` [Compound 144] was 5.30 to 6.30.

The assay is the same for the next values; noted with them: NS3/4A BMS strain; activity range symbols.
Consider `CC(C)(C)OC(=O)N[C@H]1CCCCC/C=C\[C@@H]2C[C@@]2(C(=O)NS(=O)(=O)C2CC2)NC(=O)[C@@H]2C[C@@H](Oc3nc(-c4ccccc4)cc4ccccc34)CN2C1=O` [Compound 58, [(Z)-(1S,4R,14S,18R)-4-cyclopropanesulfonylaminocarbonyl-2,15-dioxo-18-(3-phenyl-isoquinolin-1-yloxy)-3,16-diaza-tricyclo[14.3.0.0^4,6]nonadec-7-en-14-yl]-carbamic acid tert-butyl ester], for which the pIC50 is above 7.30. Same read-out and setting: the value for `CC1(OC(=O)NC2CCCCCC=CC3CC3(C(=O)NS(=O)(=O)C3CC3)NC(=O)C3CC(Oc4nccc5ccccc45)CN3C2=O)CC1` (centres unmarked) [Compound 59] was above 7.30; that for `COc1ccc2c(OC3CC4C(=O)NC5(C(=O)NS(=O)(=O)C6CC6)CC5C=CCCCCCC(NC(=O)N5CCCC5)C(=O)N4C3)nccc2c1` (centres unmarked) [Compound 60] was above 7.30. The same measure, in the same setting: under `COc1ccc2c(OC3CC4C(=O)NC5(C(=O)NS(=O)(=O)C6CC6)CC5C=CCCCOC(C)C(NC(=O)OC(C)(C)C)C(=O)N4C3)nccc2c1` (centres unmarked) [Compound 62] stands above 7.30; under `COc1ccc2c(OC3CC4C(=O)NC5(C(=O)NS(=O)(=O)C6CC6)CC5C=CCCCOC(C)C(NC(=O)OCC(C)(C)C)C(=O)N4C3)nccc2c1` (centres unmarked) [Compound 63], above 7.30. On the same count and under the same terms, the value for `COc1ccc2c(OC3CC4C(=O)NC5(C(=O)NS(=O)(=O)C6CC6)CC5C=CCCCOC(C)C(NC(=O)OC(C)C)C(=O)N4C3)nccc2c1` (centres unmarked) [Compound 64] was above 7.30; that for `COc1ccc2c(OC3CC4C(=O)NC5(C(=O)NS(=O)(=O)C6CC6)CC5C=CCCCOC(C)C(NC(=O)NC5CCCC5)C(=O)N4C3)nccc2c1` (centres unmarked) [Compound 65] was above 7.30; that for `COc1ccc2c(OC3CC4C(=O)NC5(C(=O)NS(=O)(=O)C6(C)CC6)CC5C=CCCCOC(C)C(NC(=O)OC(C)(C)C)C(=O)N4C3)nccc2c1` (centres unmarked) [Compound 66] was above 7.30. On to `COc1ccc2c(OC3CC4C(=O)NC5(C(=O)NS(=O)(=O)C6(C)CC6)CC5C=CCCCOC(C)C(NC(=O)OCC(C)(C)C)C(=O)N4C3)nccc2c1` (centres unmarked) [Compound 67], for which the pIC50 is above 7.30. Same read-out and setting: under `COc1ccc2c(OC3CC4C(=O)NC5(C(=O)NS(=O)(=O)C6(C)CC6)CC5C=CCCCOC(C)C(NC(=O)OC(C)C)C(=O)N4C3)nccc2c1` (centres unmarked) [Compound 68] stands above 7.30; under `COc1ccc2c(OC3CC4C(=O)NC5(C(=O)NS(=O)(=O)C6(C)CC6)CC5C=CCCCOC(C)C(NC(=O)NC5CCCC5)C(=O)N4C3)nccc2c1` (centres unmarked) [Compound 69], above 7.30. Same read-out and setting: under `CCC1(S(=O)(=O)NC(=O)C23CC2C=CCCCOC(C)C(NC(=O)OC(C)(C)C)C(=O)N2CC(Oc4nccc5cc(OC)ccc45)CC2C(=O)N3)CC1` (centres unmarked) [Compound 70] stands above 7.30; under `CCC1(S(=O)(=O)NC(=O)C23CC2C=CCCCOC(C)C(NC(=O)OCC(C)(C)C)C(=O)N2CC(Oc4nccc5cc(OC)ccc45)CC2C(=O)N3)CC1` (centres unmarked) [Compound 71], above 7.30. On the same count and under the same terms, under `CCC1(S(=O)(=O)NC(=O)C23CC2C=CCCCOC(C)C(NC(=O)OC(C)C)C(=O)N2CC(Oc4nccc5cc(OC)ccc45)CC2C(=O)N3)CC1` (centres unmarked) [Compound 72] stands above 7.30. For `CCC1(S(=O)(=O)NC(=O)C23CC2C=CCCCOC(C)C(NC(=O)NC2CCCC2)C(=O)N2CC(Oc4nccc5cc(OC)ccc45)CC2C(=O)N3)CC1` (centres unmarked) [Compound 73], the pIC50 was above 7.30. Same read-out and setting: the value for `COc1ccc2c(OC3CC4C(=O)NC5(C(=O)NS(=O)(=O)C6CC6)CC5C=CCCCSCC(NC(=O)OC(C)C)C(=O)N4C3)nccc2c1` (centres unmarked) [Compound 74] was above 7.30. In the case of `COc1ccc2c(OC3CC4C(=O)NC5(C(=O)NS(=O)(=O)C6CC6)CC5C=CCCCSCC(NC(=O)OCC(C)(C)C)C(=O)N4C3)nccc2c1` (centres unmarked) [Compound 75], the pIC50 is above 7.30. Consider `CC(C)(C)OC(=O)NC1CSCCCC=CC2CC2(C(=O)NS(=O)(=O)C2CC2)NC(=O)C2CC(Oc3nccc4c(Cl)cccc34)CN2C1=O` (centres unmarked) [Compound 78], for which the pIC50 is above 7.30.
